Where two headings read alike, the source gives them in different places. Where no end group is shown, it is not given here.
How the values were obtained:
LN-229-GFP flank tumors = assay: Histologic probe labeling of LN-229-GFP flank tumor tissue sections; format: binding, human; settings: probe 1 μM, 1 hour, room temperature
Procedure: Tumors were embedded in Tissue Freezing Medium (Electron Microscopy Sciences, Hatfield, Pa.) in a dry ice ethanol slurry and cryosectioned at 7-μm intervals.
For probe labeling, tissue sections were blocked with 2% goat serum in phosphate-buffered saline for 20 minutes at room temperature, then incubated with SBK2-Texas Red or scrambled Texas Red probes diluted to 1 μMin block buffer for 1 hour at room temperature in dark conditions. The sections were rinsed with phosphate-buffered saline, coverslipped with Citifluor Antifadent Mounting Medium (Electron Microscopy Sciences), and imaged immediately at ×20 magnification on a Leica DMI 6000 B inverted microscope (Leica Microsystems GmbH, Wetzlar, Germany) using a Retiga EXi camera (QImaging, Surrey, BC) and Metamorph software (MolecularDevices, Downington, Pa.). Images were acquired across the entire tissue using bright-field and fluorescence optics for fluorescein (GFP) and Texas Red (probe). The resultant images were tiled and flattened to form a single composite image using Metamorph software. A human specific Vimentin antibody (clone SP20; Thermo Fisher Scientific, Fremont, Calif.) was used to detect the implanted LN-229 tumor cells and imaged as above.

prostate tumors = assay: Labeling of prostate tumors with PTPμ probe (FIG. 3)
[1] = tested on: CNS-1-GFP intracranial tumors; settings: for Cy5 fluorescence intensity of main tumors and dispersed cell populations: CNS-1 tumors, i.v. probe, 90 min clearance, normalized to background and tumor volume; for labeling of tumor (Cy5 signal) in words: intracranial glioma tumors, i.v. administration (FIG. 4)
Procedure: (§1) Imaging experiments were performed at 10-11 days for CNS-1 and 4-8 weeks for LN-229, to allow for optimal tumor growth and cell dispersal in these two cell lines. […] Following a 90-min interval for clearance of unbound probe, the animals were sacrificed and the brains removed for whole-brain imaging using the MAESTRO FLEX In-Vivo Imaging System (Cambridge Research & Instrumentation, Inc. (CRi), Woburn, Mass.) Immediately after imaging, the brains were embedded in Tissue-Tek OCT compound (Sakura Finetek U.S.A., Inc. Torrance, Calif.), frozen in a dry ice/ethanol slurry and cryo-imaged.
Frozen brains were alternately sectioned and imaged using the previously described Case Cryo-Imaging System at a section thickness of 15 μm and a resolution of 11×11×15 μm. Brightfield and fluorescence images were acquired for each of the brains using a low light digital camera (Retiga Exi, QImaging Inc., Canada), an epi-illumination fluorescent light source (Lumen200 PRO, Prior Scientific' Rockland, Mass.) and fluorescence filters for GFP (Exciter: HQ470/40x, Dichroic: Q495LP, Emitter: HQ500LP) or Cy5 (Exciter: FF01-628/40-25, Dichroic: FF660-Di01−25×36, Emitter: FF01-692/40-25; Semrock, Rochester, N.Y.). Single GFP expressing cells were readily detected with this system. […] Eight brains implanted with CNS-1-GFP cells and six brains with LN-229-GFP cells were analyzed.
Briefly, the main tumor mass was segmented using a fast 3-D region growth algorithm with intensity and gradient-based inclusion/exclusion criteria. Individual slice images were manually edited if necessary. Dispersed cells and clusters were detected by thresholding a Gaussian high pass filter image, discounting the masked main tumor mass. […] Light scattering in tissue might appear as a false positive signal in Cy5 volumes, However, we processed Cy5 volumes with a next-image processing algorithm, and used attenuation and scattering parameters for brain tissue that were previously described. Similar parameters were applied for both SBK2-Cy5 and scrambled-Cy5 volumes. To find co-labeled cells/clusters we applied a logical AND operator between the dispersed cell and Cy5 volumes. The lower limit for the blood vessel detection algorithm was ˜30 μm diameter. 3-D volumes of tumor, dispersed cells, Cy5 labeled cells, and vasculature were rendered using Amira software (Visage Imaging Inc., San Diego, Calif.), with modifications developed expressly for cryo-image data. Pseudo-colors were chosen to give the best contrast between the different data volumes.

[2] = Mouse health after multiple doses of Cy5 probes; format: in vivo; settings: delivery of multiple doses
Procedure: as §1

[3] = tested on: LN-229-GFP intracranial tumors; assay: In vivo labeling of LN-229-GFP intracranial tumors with Cy5 probes, 3-D cryo-imaging; design: species or system mouse; settings: for Cy5 fluorescence of main tumors and dispersed cell populations: LN-229 tumors, i.v. probe, 90 min clearance
Source text: Individual slice images were manually edited if necessary.
Total fluorescence signal was then normalized for tumor volume.

LN-229 flank tumors = settings: 0.1 mmol/kg i.v.
Source text: Cells were infected with lentivirus encoding green fluorescent protein (GFP), diluted in BD Matrigel Matrix (BD Biosciences, Franklin Lakes, N.J.), and injected into both flanks of female nude athymic mice (NCr-nu/+, NCr-nu/nu, 20-25 g each). Approximately 1.4×10^6 cells were implanted per flank. To correlate tumor position with GFP fluorescence, mice were imaged using the Maestro FLEX In Vivo Imaging System as previously described. Tumor area was approximately 0.5 cm^2, as measured from GFP fluorescence images acquired with the Maestro just before MRI.
The MRI study was performed using a Bruker Biospec 7-T MRI scanner (Bruker Corp, Billerica, Mass.) with a 72-mm diameter cylindrical radio frequency coil. Mice bearing LN-229 flank tumors were imaged at 2 to 5 weeks after tumor implant. […]
Image analysis was performed by using Bruker ParaVision 4.0 imaging software. Regions of interest were drawn over the whole tumor in the 2D imaging plane and average signal intensity was measured. Contrast-to-noise ratios (CNRs) in the tumor were calculated at each time point and averaged from different mice (n=3) using the following equation: CNR=(St−Sm)/(δn), where St and Sm denote the signal in tumor and adjacent thigh muscle and δn is the SD of noise estimated from the background air. The P values were calculated using a two-tailed Student's t test, assuming statistical significance at P<0.05. […]

Compound	labeling of flank tumor sections (LN-229-GFP flank tumors)	Cy5 fluorescence intensity of main tumors and dispersed cell populations [1]	labeling of tumor (Cy5 signal) in words [1]	effects on mouse health [2]	Cy5 fluorescence of main tumors and dispersed cell populations [3]	pattern of tumor enhancement on T1-weighted images / heat maps (LN-229 flank tumors)	further results
SBK2-Texas Red: SBK2 peptide probe labeled with Texas Red (EGDDFNWEQVNTLTKPTSD; not fully specified (N-terminus); also: labeled with Texas Red, site not given here)	labeled the entire tumor with greatest intensity in the tumor center	–	–	–	–	–	recognition of prostate tumors (prostate tumors): recognized
scrambled Texas Red: scrambled peptide probe labeled with Texas Red (GFTQPETGTDNDLWSVDNEK; not fully specified (N-terminus); also: labeled with Texas Red, site not given here) [reference compound]	did not label the tumor	–	–	–	–	–	–
scrambled-Cy5: scrambled sequence of the SBK2 peptide (SEQ ID NO: 10) conjugated to Cy5 dye; control probe (GFTQPETGTDNDLWSVDNEK; also: Cy5 dye conjugate, attachment site not given here) [reference compound]	–	7.2+/−2.3	did not label tumors	did not result in deleterious effects	5.8	–	labeling of tumor (Cy5 signal) in words ([1]; listed as scrambled probe): no significant signal above background
CC(O)CN1CCN(CC(=O)[O-])CCN(CC(=O)[O-])CCN(CC(=O)[O-])CC1.[Gd+3] (centres unmarked) [ProHance, Gadoteridol, reference compound]	–	–	–	–	–	enhanced contrast of the tumor edge compared with the tumor center	–
SBK2-Cy5: SBK2 peptide (SEQ ID NO: 5) with additional N-terminal glycine conjugated to Cy5 NHS ester dye (Cy5-GEGDDFNWEQVNTLTKPTSD)	–	73.5+/−16.2	brightly labeled	did not result in deleterious effects	114.7+/−25.9	–	blood-brain barrier crossing ([1]; mouse, in vivo, iv): crosses the blood-brain barrier; dispersed cell population labeled ([3]; LN-229-GFP intracranial tumors): greater than 99%; labeling of main GFP-positive tumor in words ([3]; LN-229-GFP intracranial tumors): bright Cy5 fluorescence signal
scrambled Tris-(Gd-DOTA)3: scrambled SBK2 peptide (SEQ ID NO: 10) linked to Gd-DOTA; nontargeted control agent (CGFTQPETGTDNDLWSVDNEK; numbers in words are those of the source; also: Tris-(Gd-DOTA)3 conjugate, attachment site not given here) [reference compound]	–	–	–	–	–	enhanced contrast of the tumor edge compared with the tumor center	–

Reference: patent US9415122B2, “Methods and compositions for the detection of cancer cells” (priority 2008, dated 2016)
